Measurements from patent US10124004B2, “Pyrido[3,4-d]pyrimidine derivative and pharmaceutically acceptable salt thereof” (Teijin Pharma Limited, priority 2015, dated 2018).
pIC50: −log10 of the molar value.

These compounds were tested against T1, CDK4/cyclin D3 (Homo sapiens, UniProt P11802) (assay: Human CDK4/cyclin D3 inhibitory activity (QS S Assist CDK4/Cyclin D3_FP Kit, IMAP fluorescence polarization)). Settings: 50% inhibitory concentration against CDK4/cyclin D3, given as class symbol.
T1 construct: purchased Carna Biosciences, Inc. QS S Assist CDK4/Cyclin D3_FP Kit
T1 sequence (P11802 whole entry): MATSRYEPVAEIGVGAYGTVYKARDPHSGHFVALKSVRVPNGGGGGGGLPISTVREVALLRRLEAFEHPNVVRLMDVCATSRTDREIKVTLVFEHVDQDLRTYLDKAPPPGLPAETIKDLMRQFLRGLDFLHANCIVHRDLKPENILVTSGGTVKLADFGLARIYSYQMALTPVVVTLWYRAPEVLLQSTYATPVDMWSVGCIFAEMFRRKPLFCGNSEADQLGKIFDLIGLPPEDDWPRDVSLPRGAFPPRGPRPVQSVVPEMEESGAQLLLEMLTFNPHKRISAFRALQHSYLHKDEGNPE
T1 sequence (P30281 whole entry partner): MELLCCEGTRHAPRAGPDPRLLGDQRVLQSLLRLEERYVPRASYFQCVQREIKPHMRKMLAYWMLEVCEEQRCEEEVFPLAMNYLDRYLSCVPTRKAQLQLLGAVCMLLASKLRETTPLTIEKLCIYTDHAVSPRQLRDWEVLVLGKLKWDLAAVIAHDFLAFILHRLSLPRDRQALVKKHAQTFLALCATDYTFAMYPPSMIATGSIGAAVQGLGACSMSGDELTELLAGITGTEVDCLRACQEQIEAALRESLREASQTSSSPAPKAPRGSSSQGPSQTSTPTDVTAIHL
Format: biochemical
Protocol: Human CDK4/Cyclin D3 Inhibitory Activity
Each compound was analyzed for CDK4/cyclin D3 inhibitory activity with an assay kit (QS S Assist CDK4/Cyclin D3_FP Kit, available from Carna Biosciences, Inc.). This assay kit determines kinase activity on the basis of the IMAP technology by Molecular Devices. Specifically, the kinase activity is determined through quantification of a variation in fluorescent polarization caused by binding of a kinase-phosphorylated fluorescent substance to an IMAP-binding reagent.
Each solution was prepared with the 10× assay buffer attached to the kit or a separately prepared assay buffer having the same composition as the assay buffer attached to the kit. An assay buffer was prepared by 10-fold dilution of the 10× assay buffer with distilled water. The assay buffer contains 20 mM HEPES (pH 7.4), 0.01% Tween20, and 2 mM dithiothreitol. A test compound solution was prepared by dilution of the test compound with dimethyl sulfoxide (DMSO) to a concentration 100 times higher than the final concentration and then 25-fold dilution with the assay buffer to a concentration four times higher than the final concentration. An ATP/substrate/Metal solution was prepared by five-fold dilution of the 5×ATP/substrate/Metal solution attached to the kit with the assay buffer. An enzyme solution was prepared by dilution of the CDK4/cyclin D3 attached to the kit with the assay buffer to a concentration twice higher than the final concentration (final concentration of CDK4/cyclin D3:12.5 to 25 ng/well). A detection reagent was prepared by five-fold dilution of each of 5× IMAP-binding buffer A and 5×IMAP-binding buffer B with distilled water, mixing of IMAP-binding buffer A with IMAP-binding buffer B at a ratio of 85:15, and 400-fold dilution of the IMAP-binding reagent with the mixed buffer.
The test compound solution (5 μL/well) and the ATP/substrate/Metal solution (5 μL/well) were added to a 384-well plate, and the enzyme solution or the assay buffer (10 μL/well) was added to the plate (total amount of the reaction mixture: 20 μL/well) for initiation of enzymatic reaction. […] The reaction was performed at room temperature for 45 minutes, and the detection reagent (60 μL/well) was then added to the plate, followed by further reaction for 30 minutes at room temperature under light shielding conditions. Subsequently, fluorescent polarization was determined with a microplate reader at an excitation wavelength of 485 nm and an emission wavelength of 535 nm.
The percent inhibition of enzyme activity was calculated for each test compound (note: enzyme activity=100% in the case of addition of the enzyme solution and addition of DMSO instead of the test compound solution, whereas enzyme activity=0% in the case of addition of the assay buffer instead of the enzyme solution, and addition of DMSO instead of the test compound solution). The percent inhibition of enzyme activity was fitted to a dose-response curve, to determine a 50% inhibitory concentration against CDK4/cyclin D3.
In each table, “+++” corresponds to IC50<10 nM, “++” 10 nM≤IC50<100 nM, and “+” 100 nM≤IC50.

| pIC50 | SMILES |
| --- | --- |
| > 8.00 | CC(O)c1cc2cnc(Nc3ccc(OCCN(C)C)cn3)nc2c(NC2CCC(C)(C)OC2)n1 (single isomer, unassigned) [Compound 689] |
| > 8.00 | CC(O)c1cc2cnc(Nc3ccc(OCCN(C)C)cn3)nc2c(NC2CCC(C)(C)OC2)n1 (single isomer, unassigned) [Compound 690] |
| 7.00 to 8.00 | CO[C@H](C)c1cc2cnc(Nc3ccc(CN4CCN(CCCC(=O)O)CC4)cn3)nc2c(NC(C)C)n1 [Compound 697] |
| 7.00 to 8.00 | CO[C@H](C)c1cc2cnc(Nc3ccc(CN4CCN(CCC(=O)O)CC4)cn3)nc2c(NC(C)C)n1 [Compound 685] |

Same assay, conditions: Human CDK4/cyclin D3 inhibitory activity; read-out: CDK4 Activity symbol

| SMILES | pIC50 |
| --- | --- |
| CO[C@H](C)c1cc2cnc(Nc3ccc(N4CCCNCC4)nn3)nc2c(NC(C)C)n1 [Compound 495] | > 8.00 |
| CO[C@H](C)c1cc2cnc(Nc3ccc(N4CC5(CC(N)C5)C4)cn3)nc2c(NC(C)C)n1 [Compound 484] | > 8.00 |
| COC(C)c1cc2cnc(Nc3ccc(O[C@H]4CCNC[C@H]4F)cn3)nc2c(NC(C)C)n1 (relative stereo) [Compound 460] | > 8.00 |
| CO[C@H](C)c1cc2cnc(Nc3ncc(N4CCNCC4)cn3)nc2c(NC(C)C)n1 [Compound 374] | 7.00 to 8.00 |
| CO[C@H](C)c1cc2cnc(Nc3ccc(N4CCNC(=O)C4)nn3)nc2c(NC(C)C)n1 [Compound 362] | 7.00 to 8.00 |
| CO[C@H](C)c1cc2cnc(Nc3ccc(N4C5CCC4CC(N)C5)cn3)nc2c(NC(C)C)n1 (some centres unmarked) [Compound 502] | > 8.00 |
| CCC(C)Nc1nc(C(C)OC)cc2cnc(Nc3ccc(CN4CCNCC4)cn3)nc12 (centres unmarked) [Compound 423] | > 8.00 |
| COC(C)c1cc2cnc(Nc3ccc(CN4CCNCC4)cn3)nc2c(NC2CCNCC2)n1 (centres unmarked) [Compound 399] | 7.00 to 8.00 |
| CO[C@H](C)c1cc2cnc(Nc3ccc(OCC4(N)CCC4)cn3)nc2c(NC(C)C)n1 [Compound 505] | 7.00 to 8.00 |
| COC(C)c1cc2cnc(Nc3ccc(CN4CCNCC4)cn3)nc2c(N[C@H]2CC[C@](C)(C(=O)O)CC2)n1 (some centres unmarked) [Compound 436] | 7.00 to 8.00 |
| CC1(C)NCCN(c2ccc(Nc3ncc4cc(C(F)F)nc(N[C@H]5CC[C@H](C(=O)O)CC5)c4n3)nc2)C1=O [Compound 442] | ≤ 7.00 |
| COC(C)c1cc2cnc(Nc3ccc(OCC(C)(C)N)cn3)nc2c(NC(C)C)n1 (centres unmarked) [Compound 458] | > 8.00 |
| CN(C)CCOc1ccc(Nc2ncc3cc(C(F)F)nc(N[C@H]4CC[C@@H](O)CC4)c3n2)nc1 [Compound 426] | > 8.00 |
| COC(C)c1cc2cnc(Nc3ccc(CN4CCNCC4)cn3)nc2c(NC23CC4CC(CC(O)(C4)C2)C3)n1 (centres unmarked) [Compound 455] | > 8.00 |
| COC(=O)[C@H]1CC[C@H](CNc2nc(C(C)OC)cc3cnc(Nc4ccc(CN5CCNCC5)cn4)nc23)CC1 (some centres unmarked) [Compound 390] | > 8.00 |
| COC(C)c1cc2cnc(Nc3ccc(CN4CCNCC4)cn3)nc2c(NCC2CNC(=O)C2)n1 (centres unmarked) [Compound 406] | 7.00 to 8.00 |

| SMILES | pIC50 |
| --- | --- |
| COC(C)c1cc2cnc(Nc3ccc(OCC4(N)CC4)cn3)nc2c(NC(C)C)n1 (centres unmarked) [Compound 457] | > 8.00 |
| COC(C)c1cc2cnc(Nc3ccc(CN4CCNCC4)cn3)nc2c(NC2CCNC(=O)C2)n1 (centres unmarked) [Compound 422] | 7.00 to 8.00 |
| COC(C)c1cc2cnc(Nc3ccc(CN4CCNCC4)cn3)nc2c(NCCN2CCCC2=O)n1 (centres unmarked) [Compound 414] | 7.00 to 8.00 |
| CNC1(COc2ccc(Nc3ncc4cc(C(C)OC)nc(NC(C)C)c4n3)nc2)CC1 (centres unmarked) [Compound 461] | 7.00 to 8.00 |
| COC(C)c1cc2cnc(Nc3ccc(CN4CCNCC4)cn3)nc2c(NC2(CO)CCCCC2)n1 (centres unmarked) [Compound 434] | > 8.00 |
| CO[C@H](C)c1cc2cnc(Nc3ccc(CN4CCC(F)CC4)cn3)nc2c(NC(C)C)n1 [Compound 472] | 7.00 to 8.00 |
| COC(C)c1cc2cnc(Nc3ccc(CN4CCNCC4)cn3)nc2c(Nc2cccc(C(=O)O)c2)n1 (centres unmarked) [Compound 449] | ≤ 7.00 |
| COC(C)c1cc2cnc(Nc3ccc(CN4CCNCC4)cn3)nc2c(NC[C@H]2CC[C@H](C(=O)O)CC2)n1 (some centres unmarked) [Compound 435] | 7.00 to 8.00 |
| COC(C)c1cc2cnc(Nc3ccc(CN4CCNCC4)cn3)nc2c(NC[C@@H]2CCCO2)n1 (some centres unmarked) [Compound 408] | 7.00 to 8.00 |
| CO[C@H](C)c1cc2cnc(Nc3ccc(OCC(F)CN(C)C)cn3)nc2c(NC(C)C)n1 (some centres unmarked) [Compound 487] | > 8.00 |
| CO[C@H](C)c1cc2cnc(Nc3ccc(N4CCC5(CC4)COC5)cn3)nc2c(NC(C)C)n1 [Compound 481] | 7.00 to 8.00 |
| COC(C)c1cc2cnc(Nc3ccc(CN4CCNCC4)cn3)nc2c(NCC2CCC(=O)N2)n1 (centres unmarked) [Compound 403] | 7.00 to 8.00 |
| COC(C)c1cc2cnc(Nc3ccc(CN4CCNCC4)cn3)nc2c(NC2CCOC(C)(C)C2)n1 (centres unmarked) [Compound 410] | > 8.00 |
| COC(C)c1cc2cnc(Nc3ccc(CN4CCNCC4)cn3)nc2c(NCC(C)(C)OC)n1 (centres unmarked) [Compound 394] | 7.00 to 8.00 |
| CO[C@H](C)c1cc2cnc(Nc3ccc(N4CCCN(C)CC4)nn3)nc2c(NC(C)C)n1 [Compound 488] | > 8.00 |
| CC1(C)NCCN(c2ccc(Nc3ncc4cc(C(F)F)nc(N[C@H]5CC[C@H](O)CC5)c4n3)nc2)C1=O [Compound 443] | 7.00 to 8.00 |

Other lines, results leading:

| pIC50 | SMILES |
| --- | --- |
| > 8.00 | CC(C)Nc1nc([C@@H](C)O)cc2cnc(Nc3ccc(OC4CNC4)cn3)nc12 [Compound 568] |
| > 8.00 | CC(C)Nc1nc([C@@H](C)O)cc2cnc(Nc3ccc(OCC4CNC4)cn3)nc12 [Compound 570] |
| > 8.00 | CC(C)Nc1nc([C@@H](C)O)cc2cnc(Nc3ccc(N4CCN(C(C)CO)CC4=O)cn3)nc12 (some centres unmarked) [Compound 598] |
| > 8.00 | CC(C)Nc1nc([C@@H](C)O)cc2cnc(Nc3ccc(O[C@H]4CNCC[C@@H]4F)nn3)nc12 [Compound 547] |
| > 8.00 | CC(C)Nc1nc([C@@H](C)O)cc2cnc(Nc3ccc(N(C)C(=O)CN)cn3)nc12 [Compound 538] |
| > 8.00 | CC(C)Nc1nc([C@@H](C)O)cc2cnc(Nc3ccc(OCC4(F)CNC4)cn3)nc12 [Compound 578] |
| > 8.00 | CC(C)Nc1nc([C@@H](C)O)cc2cnc(Nc3ccc(O[C@@H]4CCCNC4)cn3)nc12 [Compound 571] |
| > 8.00 | CC(C)Nc1nc([C@@H](C)O)cc2cnc(Nc3ccc(OC4CCCNC4)nn3)nc12 (some centres unmarked) [Compound 541] |
| > 8.00 | CC(C)Nc1nc(C(C)O)cc2cnc(Nc3ccc(N4CCC(O)C(F)C4)nn3)nc12 (centres unmarked) [Compound 607] |
| > 8.00 | CNC1(C)CCN(c2ccc(Nc3ncc4cc([C@@H](C)OC)nc(NC(C)C)c4n3)nn2)CC1 [Compound 594] |
| > 8.00 | CNCCOc1ccc(Nc2ncc3cc([C@@H](C)O)nc(NC(C)C)c3n2)nn1 [Compound 552] |
| > 8.00 | CO[C@H](C)c1cc2cnc(Nc3ccc(N4C[C@@H]5C[C@H]4CN5)cn3)nc2c(NC(C)C)n1 [Compound 525] |
| > 8.00 | CO[C@H](C)c1cc2cnc(Nc3ccc(N4CCN(C)CC4)nn3)nc2c(NC(C)C)n1 [Compound 531] |
| 7.00 to 8.00 | CNCCOc1ccc(Nc2ncc3cc([C@@H](C)OC)nc(NC(C)C)c3n2)nn1 [Compound 551] |
| 7.00 to 8.00 | CC(C)Nc1nc([C@@H](C)O)cc2cnc(Nc3ccc(N4CCN[C@H](C)C4=O)cn3)nc12 [Compound 506] |
| > 8.00 | CO[C@H](C)c1cc2cnc(Nc3ccc(N4CC(=O)NCC4=O)cn3)nc2c(NC(C)C)n1 [Compound 533] |
| 7.00 to 8.00 | CC(C)Nc1nc([C@@H](C)O)cc2cnc(Nc3ccc(SCCN(C)C)cn3)nc12 [Compound 580] |
| > 8.00 | CC(C)Nc1nc([C@@H](C)O)cc2cnc(Nc3ccc(O[C@H]4CCCNC4)cn3)nc12 [Compound 565] |
| > 8.00 | CC(C)Nc1nc([C@@H](C)O)cc2cnc(Nc3ccc(O[C@H]4CNC[C@@H]4F)nn3)nc12 [Compound 545] |
| 7.00 to 8.00 | CO[C@H](C)c1cc2cnc(Nc3ccc(N4CCNC(=O)C(C)(C)C4)cn3)nc2c(NC(C)C)n1 [Compound 514] |
| > 8.00 | CO[C@H](C)c1cc2cnc(Nc3ccc(N4CC5(CC(O)C5)C4)nn3)nc2c(NC(C)C)n1 [Compound 523] |
| 7.00 to 8.00 | CO[C@H](C)c1cc2cnc(Nc3ccc(N4CCN(C(C)(C)C)CC4)nn3)nc2c(NC(C)C)n1 [Compound 599] |
| > 8.00 | CO[C@H](C)c1cc2cnc(Nc3ccc(CC(=O)N4CCNCC4)cn3)nc2c(NC(C)C)n1 [Compound 518] |
